Reference: patent US20200071361A1, “ENGINEERED ANTIMICROBIAL AMPHIPHILIC PEPTIDES AND METHODS OF USE” (priority 2017, published 2020)
≈ marks a conversion by molar mass, not a printed value.

Assays:
Experiment in all cases: Broth microdilution MIC, clinical isolate panel
[1] = tested on: Escherichia coli isolates (n = 101); format: cell-based; conditions: Escherichia coli (n = 101)
Procedure: (§1) Comparator antibiotics were supplied by Micromyx, and stock solutions were prepared on the first day of testing using solvents recommended by CLSI (1). Stock solutions of all compounds were made at 40× the final testing concentration and stored at −80° C. prior to testing. Information regarding compound source, catalog and lot number, testing concentrations and drug diluent for the comparators and test agent are detailed below in Table 3.
(§2) The test organisms evaluated in this study consisted of clinical isolates from the Micromyx Repository and reference isolates from the American Type Culture Collection (ATCC; Manassas, Va.). The clinical isolates were obtained from USA hospitals. Upon initial receipt at Micromyx, the organisms were sub-cultured onto an appropriate agar medium. Following incubation, colonies were harvested from these plates and cell suspensions prepared and frozen at −80° C. with a cryoprotectant. Prior to testing, the isolates were streaked from frozen vials onto Trypticase Soy Agar with 5% sheep blood (Becton Dickenson [BD]; Sparks, Md.; Lot Nos. 7173618, 7166759, 7208688, 72144895, 7228505 and Remel Lenexa, Kans. Lot No. 212574). Plates were incubated at 35° C. overnight.
(§3) Mueller Hinton II broth (MHB II; BD; Lot Nos. 6258541 and 7143896) was used for MIC testing of aerobic organisms.
(§4) MIC values were determined using a broth microdilution procedure described by CLSI (1, 3). Automated liquid handlers (Multidrop 384, Labsystems, Helsinki, Finland; Biomek 2000 and Biomek FX, Beckman Coulter, Fullerton Calif.) were used to conduct serial dilutions and liquid transfers.
(§5) To prepare the drug mother plates, which would provide the serial drug dilutions for the replicate daughter plates, the wells of columns 2-12 of standard 96-well microdilution plates (Costar 3795) were filled with 150 μl of the designated diluent for each row of drug. The test articles and comparator compounds (300 μl at 40× the highest concentration to be tested) were dispensed into the appropriate wells in column 1. The Biomek 2000 was then used to make 2-fold serial dilutions in the mother plates from column 1 through column 11. The wells of Column 12 contained no drug and served as the organism growth control wells for the assay.
(§6) The daughter plates were loaded with 185 μL per well of MHB II using the Multidrop 384. The daughter plates were completed on the Biomek FX instrument which transferred 5 µL of drug solution from each well of a mother plate to the corresponding well of each daughter plate in a single step. A standardized inoculum of each test organism was prepared per CLSI methods (1). The inoculum for each organism was dispensed into sterile reservoirs divided by length (Beckman Coulter), and the Biomek 2000 was used to inoculate the plates. Daughter plates were placed on the Biomek 2000 work surface in reverse orientation so that inoculation took place from low to high drug concentration.
(§7) Plates were stacked 3-4 high, covered with a lid on the top plate, placed in plastic bags, and incubated at 35° C. for 16 to 20 hrs. Following incubation, the microplates were removed from the incubator and viewed from the bottom using a plate viewer. […] The MIC was read and recorded as the lowest concentration of drug that inhibited visible growth of the organism.
(§8) Clinical breakpoints to determine percent resistance within a given organism group were obtained from CLSI (3), with the exception of colistin for K. pneumoniae, Enterobacter spp., and E. coli, which are only available from EUCAST.

[2] = tested on: Acinetobacter spp. isolates (n = 104); format: cell-based; conditions: Acinetobacter spp. (n = 104)
Procedure: as §1, §2, §3, §4, §5, §6, §7, §8

[3] = tested on: Pseudomonas aeruginosa isolates (n = 109); format: cell-based; conditions: Pseudomonas aeruginosa
Procedure: as §1, §2, §3, §4, §5, §6, §7, §8

[4] = tested on: Staphylococcus aureus isolates (n = 104); format: cell-based; conditions: Staphylococcus aureus (n = 104), all methicillin-resistant
Procedure: as §1, §2, §3, §4, §5, §6, §7, §8

[5] = tested on: Klebsiella pneumoniae isolates (n = 101); format: cell-based; conditions: Klebsiella pneumoniae (n = 101)
Procedure: as §1, §2, §3, §4, §5, §6, §7, §8

[6] = tested on: Enterobacter spp. isolates (n = 102); format: cell-based, Enterobacter aerogenes and E. cloacae; conditions: Enterobacter spp. (n = 102)
Procedure: as §1, §2, §3, §4, §5
The daughter plates were loaded with 185 μL per well of MHB II using the Multidrop 384. The daughter plates were completed on the Biomek FX instrument which transferred 5 µL of drug solution from each well of a mother plate to the corresponding well of each daughter plate in a single step. […]
Plates were stacked 3-4 high, covered with a lid on the top plate, placed in plastic bags, and incubated at 35° C. for 16 to 20 hrs. […] The MIC was read and recorded as the lowest concentration of drug that inhibited visible growth of the organism. […]

**Q.** What does the source list for C[C@H]1COc2c(N3CCN(C)CC3)c(F)cc3c(=O)c(C(=O)O)cn1c23 [Levofloxacin]?
**A.** % R (percent of isolates resistant, clinical breakpoints) [1]: ~50%; MIC50 [1]: 4 µg/mL (≈ 11.1 µM); MIC50 [2]: 8 µg/mL (≈ 22.1 µM); MIC50 [3]: 1 µg/mL (≈ 2.77 µM); MIC ([3]; read-out: Mode (MIC)): 0.25 µg/mL (≈ 0.692 µM); % R (percent of isolates resistant, clinical breakpoints) [4]: Over 80%; MIC50 [4]: 8 µg/mL (≈ 22.1 µM); % R (percent of isolates resistant, clinical breakpoints) [5]: over 60%; % R (percent of isolates resistant, clinical breakpoints) [6]: 4.9%
